Test results reported in US20140148498A1, “METHODS AND COMPOSITIONS FOR THE TREATMENT OF MARFAN SYNDROME AND ASSOCIATED DISORDERS” (THE JOHNS HOPKINS UNIVERSITY, priority 2011, published 2014).
“Also recorded” adds a separate entry of the source.

Assays:
Fbn1^C1039G/+ mice [1] = assay: Aortic root growth by echocardiography, 7 months of treatment (Examples 3-5); type: in vivo; settings: for Final absolute aortic root diameter: 7 months of treatment; for Aortic root growth over 7 months of treatment: versus placebo, drug in drinking water from 8 weeks of age
Experimental: A head-to-head comparison of ACEi versus ARBs was performed. Fbn1^C1039G/+ mice and WT littermates were treated with hemodynamically equivalent doses (FIG. 8) of either the ACEi enalapril (10 to 15 mg/kg of body weight per day) or the ARB losartan (40 to 60 mg/kg per day) (R. D. Patten et al., Clin. Sci 104, 109 (2003)), beginning at 8 weeks of age, and were assessed with serial echocardiograms. […] It is noteworthy that losartan reduced aortic root growth in Fbn1^C1039G/+ mice, but had no effect in WT littermates (P=0.27). […] Whether AT2 signaling is needed to achieve losartan's full therapeutic benefit was assessed. AT2KO:Fbn1^C1039G/+ mice were treated with losartan from 8 weeks of age and followed by serial echocardiography until they were killed at 9 months of age (FIG. 2C).
(§1) All mice were cared for under strict compliance with the Animal Care and Use Committee of the Johns Hopkins University School of Medicine. The Fbn1^C1039G/+ and AT2KO lines were maintained n a pure C57BL/6 background (backcrossed for greater than 9 generations), allowing for valid comparisons. In order to further accommodate the potential for temporal- or background-specified variation, all comparisons were made between contemporary littermates when possible. The AT21C0 mice were obtained as a generous gift from Dr. Inagami (T. Ichiki et al., Nature 377, 748 (1995)). The Agtr2 gene resides on the X chromosome and therefore we used either male mice carrying the mutated allele (who are hemizygous) or homozygous females, both of which have been previously shown to be functionally null for the AT2 receptor (T. Ichiki et al., Nature 377, 748 (1995)). Mice were sacrificed with an inhalation overdose of halothane (Sigma-Aldrich, St. Louis). Mice underwent immediate laparotomy, descending abdominal aortic transection, and PBS (pH 7.4) was infused through the right and left ventricles to flush out the blood. Mice that were analyzed for Western Blot analysis had their proximal ascending aortas (root to right brachiocephalic trunk) immediately dissected out, flash frozen in liquid nitrogen and stored at −80d until further processing. Mice that were analyzed for aortic histology had latex injected under low pressure into the left ventricular apex until it was visible in the descending abdominal aorta. Mice that were analyzed for lung histology had their trachea intubated with a 20-gauge blunted needle, and 0.5% agar was infused under a low and constant pressure to gradually inflate the lungs. The trachea was then tied-off using vicryl and the needle was removed. Mice were fixed for 24 hours in 10% buffered formalin, after which the heart, aorta and lungs were removed and stored in 70% ethanol.
(§2) Mice were started on medication at 8 weeks of age and continued for 7 months. Losartan was dissolved in drinking water and filtered to reach a concentration of 0.6 g/L, giving an estimated daily dose of 40-60 mg/kg/day. Enalapril was dissolved in drinking water and filtered to reach a final concentration of 0.15 g/L, giving an estimated daily dose of 10-15 mg/kg/day. […] Spironolactone was dissolved in drinking water and filtered to give an estimated dose of 20 mg/kg/day, a dose previously shown to have in-vivo phenotypic benefit in cardiovascular disease states (S. Sakurabayashi-Kitade et al., Atherosclerosis 206, 54 (2009)). Placebo-treated animals received regular drinking water. Blood pressures were analyzed by taking 20 tail cuff blood pressures per day over 5 days in each mouse to habituate the mice to the tail cuff pressure system, and the blood pressures obtained on the last day were averaged. At least 4 mice for each treatment group were analyzed.
Nair hair removal cream was used on all mice the day prior to echocardiograms. All echocardiograms were performed on awake, unsedated mice using the Visualsonics Vevo 660 V1.3.6 imaging system and a 30 MHz transducer. Mice were imaged at baseline, 1 month after treatment and then every two months until the time of sacrifice. […]

Fbn1^C1039G/+ mice [2] = assay: Systolic blood pressure by tail cuff; type: in vivo; settings: compared to placebo-treated animals, FIG. 8
Experimental: as §2

Fbn1^C1039G/+ mice [3] = assay: Aortic wall architecture score (VVG staining); type: in vivo
Experimental: Latex-infused ascending aortas were transected just above the level of the aortic valve, and 2-3 mm transverse sections were mounted in 4% agar prior to paraffin fixation. Five micrometer aortic sections underwent Verhoeff-van Giesen (VVG) staining and were imaged at 40× magnification, using a Nikon Eclipse E400 microscope. Wall thickness of the aortic media was measured by a single blinded observer at 16 different locations around the most proximal ascending aortic ring and averaged. Wall architecture of 4 representative sections for each mouse was assessed by the same 3 blinded observers and graded on an arbitrary scale of 1 (indicating no breaks in the elastic fiber) to 5 (indicating diffuse fragmentation), and the results were averaged. Elastic fiber content was quantified in four separate representative images of each section of the most proximal ascending aorta by a single blinded observer, using NIS Elements Advanced Research (Nikon, Japan). The aortic media and the elastic fibers were individually outlined and their areas calculated. The respective areas were averaged from all the images of a given aortic section and the ratio of elastic fiber content to total aortic media was determined. Individual lobes of the lungs were mounted in 4% agar and fixed in paraffin. Five micrometer lung sections underwent hematoxylin and eosin staining and were imaged at 10× magnification, using a Nikon Eclipse E400 microscope. Five fields were analyzed for each lobe of each lung by a single blinded observer, and a mean linear intercept was calculated using a previously described method (J. P. Habashi et al., Science 312, 117 (2006); and E. R. Neptune et al., Nat. Genet. 33, 407 (2003)).

ERK1/2 = assay: Western blot of aortic root and proximal ascending aorta: ERK1/2 activation (Examples 4-5); type: in vivo, mice; settings: Fbn1^C1039G/+ mice, FIG. 10B
From the text: as §1, with “The trachea was then tied-off using vicryl and the needle was removed. Mice were fixed for 24 hours in 10% buffered formalin, after which the heart, aorta and lungs were removed and stored in 70% ethanol.” left out
(§3) Mouse aortic root and ascending aortas (aortic root excluding the aortic valve to origin of right brachiocephalic trunk) were harvested, snap-frozen in liquid nitrogen and stored at −80° C. until processed. […] Equal protein loading of samples was determined by a protein assay (BioRad, CA), and confirmed by probing with antibodies against β-Actin or GAPDH (Sigma, Mo.). […]

Smad2 = assay: Western blot of aortic root and proximal ascending aorta: Smad2 activation (Examples 4-5); type: in vivo, mice; settings: Fbn1^C1039G/+ mice, FIG. 10B
From the text: as §1
Mouse aortic root and ascending aortas (aortic root excluding the aortic valve to origin of right brachiocephalic trunk) were harvested, snap-frozen in liquid nitrogen and stored at −80° C. until processed. Protein was extracted using the reagents and protocol from a Total Protein Extraction Kit containing protease inhibitor and Protein Phosphatase Inhibitor Cocktail (Millipore, MA). Aortas were homogenized using a pellet pestle motor (Kimble-Kontes, NJ) as per the extraction kit protocol. […] Equal protein loading of samples was determined by a protein assay (BioRad, CA), and confirmed by probing with antibodies against β-Actin or GAPDH (Sigma, Mo.). […] Blots were then washed in PBS-T, developed using SuperSignalWest HRP substrate (Pierce Scientific, IL), exposed to BioMax Scientific Imaging Film (Sigma, Mo.) and quantified using Imaged analysis software (NIH, MD).

JNK1 = assay: Western blot of proximal ascending aorta: JNK1 activation (Examples 4-5); type: in vivo, mice; settings: Fbn1^C1039G/+ mice, FIG. 13
From the text: as §1, with “The trachea was then tied-off using vicryl and the needle was removed. Mice were fixed for 24 hours in 10% buffered formalin, after which the heart, aorta and lungs were removed and stored in 70% ethanol.” left out
as §3

p38 = assay: Western blot of proximal ascending aorta: p38 activation (Examples 4-5); type: in vivo, mice; settings: Fbn1^C1039G/+ mice, FIG. 13
From the text: as §1, with “The trachea was then tied-off using vicryl and the needle was removed. Mice were fixed for 24 hours in 10% buffered formalin, after which the heart, aorta and lungs were removed and stored in 70% ethanol.” left out
as §3

Fbn1^C1039G/+ mice [4] = assay: Aortic root and ascending aortic growth by echocardiography (Examples 6-8); type: in vivo
From the text: (§4) All mice were cared for under strict compliance with the Animal Care and Use Committee of the Johns Hopkins University School of Medicine. The Smad4 haploinsufficient mice were a generous gift from Dr. Chuxia Deng (NIH/NIDDK, Bethesda). The Fbn1^C1039G/+ line was maintained on a C57BL/6 background, allowing for valid comparisons. In order to further accommodate the potential for temporal- or background-specific variation in genetic or pharmacological manipulation experiments, all comparisons were made between contemporary littermates. Mice were checked daily for death and all mice found dead were immediately necropsied to assess for evidence of aortic dissection. Mice were killed with an inhalation overdose of halothane (Sigma-Aldrich, St. Louis). Mice underwent immediate laparotomy, descending abdominal aortic transection, and PBS (pH 7.4) infusion through the left ventricle to flush out the blood. For Western blot analysis, the proximal ascending aorta (root to right brachiocephalic trunk) was removed, flash frozen in liquid nitrogen and stored at −80° C. Following PBS infusion, mice analyzed for aortic histology had latex injected under low pressure into the left ventricular apex until it was visible in the descending abdominal aorta. The mice were then fixed for 24 hours in 10% buffered formalin, after which the heart and aorta were removed and stored in 70% ethanol.
Mouse monoclonal TGFβNAb (1d11; R&D Systems, Minneapolis) was reconstituted in PBS and administered via intraperitoneal injection 3 times a week at a dose of 5 mg/kg. Treatment was initiated at 1 month of age and continued for 2 months. IgG (Zymed Laboratories Inc, San Francisco) was reconstituted in PBS, and administered at a dose of 10 mg/kg as a control. SP600125 (Sigma-Aldrich, St. Louis) was reconstituted in 10% DMSO dissolved in PBS, and administered twice daily by intraperitoneal injection, at a dose of 30 mg/kg. Treatment was initiated at 1 month of age and continued for 2 months. 10% DMSO dissolved in PBS was administered as a control. RDEA119 was reconstituted in 10% 2-hydroxypropyl-beta-cyclodextrin (Sigma-Aldrich, St. Louis) dissolved in PBS, and administered twice daily by oral gavage at a dose of 25 mg/kg. Treatment was initiated at 2 months of age and continued for 2 months. 10% 2-hydroxypropyl-beta-cyclodextrin dissolved in PBS was administered as a control. Fasudil was dissolved in drinking water, and administered at a dose of 1 mg/kg body weight per day. Treatment was initiated at 2 months of age and continued for 4 months. Drinking water was administered as a control.
Nair hair removal cream was used on all mice the day prior to echocardiography. All echocardiograms were performed on awake, unsedated mice using the Visualsonics Vevo 660 V1.3.6 imaging system and a 30 MHz transducer. The aorta was imaged using a parasternal long axis view. Three separate measurements of the maximal internal systolic dimension at the sinus of Valsalva and proximal ascending aorta were made, and a mean was calculated. All imaging and measurements were performed by a cardiologist who was blinded to genotype and treatment arm. In the TGFβNAb and SP600125 trials, mice were imaged at 1 month (baseline) and 3 months of age, after which they were killed. In the RDEA119 trial, mice were imaged at 2 months (baseline) and 4 months of age, after which they were killed. In the fasudil trial, mice were imaged at 2 months (baseline) and 6 months of age, after which they were killed. Smad4 haploinsufficient mice were imaged at 1 month, and then every 2 months thereafter, until death or sacrifice.

WT mice = assay: Aortic root growth by echocardiography, WT mice (Examples 6-8); type: in vivo; settings: 1 mg/kg per day in drinking water, 4 months, FIG. 18
From the text: as §4
Mouse monoclonal TGFβNAb (1d11; R&D Systems, Minneapolis) was reconstituted in PBS and administered via intraperitoneal injection 3 times a week at a dose of 5 mg/kg. Treatment was initiated at 1 month of age and continued for 2 months. IgG (Zymed Laboratories Inc, San Francisco) was reconstituted in PBS, and administered at a dose of 10 mg/kg as a control. […]
Nair hair removal cream was used on all mice the day prior to echocardiography. […] Three separate measurements of the maximal internal systolic dimension at the sinus of Valsalva and proximal ascending aorta were made, and a mean was calculated. […]

`CCOC(=O)[C@H](CCc1ccccc1)N[C@@H](C)C(=O)N1CCC[C@H]1C(=O)O` [enalapril] was tested, and the “Final absolute aortic root diameter” value (Fbn1^C1039G/+ mice [1]; FIG. 2B, mean +/- 2 SEM) was 2.18+/−0.18 mm, the “Aortic root growth over 7 months of treatment” value (Fbn1^C1039G/+ mice [1]) was “marginal (P=0.05) decrease in growth” and the “Aortic root growth over 7 months of treatment” value (Fbn1^C1039G/+ mice [1]; listed as Enalapril) was “only marginally better than placebo treatment”. The Systolic blood pressure (Fbn1^C1039G/+ mice [2]) was “equal reduction in systolic blood pressure”, the “Aortic wall architecture score” value (Fbn1^C1039G/+ mice [3]; FIG. 9) was “no more effective than placebo” and the “Aortic wall architecture score” value (Fbn1^C1039G/+ mice [3]; FIG. 9, listed as Enalapril) was “no more beneficial than placebo”. The ERK1/2 activation (ERK1/2) was “no more effective than placebo; also recorded: failed to reduce ERK1/2 activation”, the Smad2 activation (Smad2) was “decreased” and the Smad2 activation (Smad2; listed as Enalapril) was “significantly more than losartan”. For the same molecule, the JNK1 activation (JNK1) was “small reduction in JNK1 activation; also recorded: modest reduction in JNK1 activation” and the p38 activation (p38) was “do not affect p38 activation; also recorded: neither had any effect”.

`O=S(=O)(c1cccc2cnccc12)N1CCCNCC1` [fasudil] was tested, and the “Absolute final aortic root diameter” value (Fbn1^C1039G/+ mice [4]; 1 mg/kg per day in drinking water, 4 months, FIG. 18) was 2.40+/−0.16, the “Aortic root growth over 4 months” value (Fbn1^C1039G/+ mice [4]; fasudil trial) was “lack of rescue of aortic root growth; also recorded: failed to attenuate aortic root growth” and the “Absolute final aortic root diameter” value (WT mice) was 1.73+/−0.05.

`CC(=O)S[C@@H]1CC2=CC(=O)CC[C@]2(C)[C@H]2CC[C@@]3(C)[C@@H](CC[C@@]34CCC(=O)O4)[C@H]12` [spironolactone] was tested, and the “Final absolute aortic root diameter” value (Fbn1^C1039G/+ mice [1]; FIG. 15, mean +/- 2 SEM) was 2.19+/−0.19 and the “Aortic root growth over 7 months of treatment” value (Fbn1^C1039G/+ mice [1]) was “no significant difference; also recorded: no significant inhibition of aortic root growth”.
